Drawing on PubChem BioAssay AID849 (SRMLSC, 2007), this text covers IC50 for 104 molecules.

Structures are written as SMILES. Activity calls are given as the source filed them. No rule for the calls is given here.

The test system of the assay is Saccharomyces cerevisiae lifespan shortening, growth inhibition. Put plainly: yeast lifespan shortening compounds, dose response (AID 849).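 Also: yeast growth read as optical density after two days at 30 degrees C.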
With `CCOC(=O)c1c(NC(=O)C(C)Sc2cccc[n+]2[O-])sc2c1CCN(Cc1ccccc1)C2` (centres undefined), the IC50 was 12.4 µM. As for `CCCOC(=O)c1ccc(Oc2cn[nH]c2-c2ccc(OC)cc2O)cc1`, the half-maximal inhibitory concentration (IC50) is 26 µM. Take `COc1ccc(OCc2nnc3n2N=C(c2ccc(OC)cc2)CS3)cc1`: the IC50 was > 100 µM (inactive).

For `Cc1ccc(C)c(-n2nnnc2SCC(=O)Nc2cccc(-c3nnc4n3CCCCC4)c2)c1`, the IC50 is > 100 µM (inactive). Consider `CCOC(=O)c1c(/N=C/c2cc([N+](=O)[O-])ccc2O)sc(C)c1C`, for which the IC50 was 47.1 µM.

For the molecule `Cc1nc2ccccc2c2c1C(=O)N(C)C2=O`, the half-inhibitory concentration (IC50) is 10.9 µM. `O=C1c2cccc3c(Cl)ccc(c23)C(=O)N1O`: the 50% inhibitory concentration (IC50) was 21.7 µM. The value for `O=C(c1c[nH]c(C(=O)C(Cl)(Cl)Cl)c1)c1ccccc1Cl` was > 100 µM (inactive); that for `COc1cc(OC)c(C2CC(=O)N3CN(C)CSC3=C2C#N)cc1OC` (centres undefined) was > 100 µM (inactive); that for `CCN(CC)N=Nc1[nH]nc2nc(C)cc(C)c12` was 7.74 µM. The same measure for `CC(=O)NC(=S)c1c(N)n(Cc2ccccc2)c(=O)n(C)c1=O`: > 100 µM (inactive); for `Cc1nn2c(-c3ccco3)nnc2c2ccccc12`: 26.5 µM. The same measure for `Cc1ccc(O)c(C(=O)CC(=O)c2cccc(F)c2)c1`: > 100 µM (inactive); for `COc1cc(-c2nc3ccc4ccccc4c3c3c2CCC3)ccc1O`: > 100 µM (inactive); for `c1ccc2c(c1)nnn1c3ccccc3nc21`: > 100 µM (inactive). As for `Fc1ccc(N/N=C2/CC(c3ccccc3)Oc3ccccc32)c(F)c1` (centres undefined), the IC50 was 27.7 µM.

With `O=S(=O)(NC1CC2CCC1C2)c1ccc(Br)s1` (centres undefined), the IC50 is 2.07 µM. Turning to `Cc1cccc(OCCCCc2c(C)n[nH]c2C)c1C`, the IC50 is 38.1 µM. In the case of `c1ccc(-c2ccc(OCCCn3cncn3)cc2)cc1`, the IC50 is > 100 µM (inactive). For the molecule `CCCc1ccc(Oc2cn[nH]c2-c2ccc(O)c(C)c2O)cc1`, the IC50 was 6.65 µM. For `CC(C)Sc1nc(N)nc(-c2cccs2)c1C#N`, the IC50 was > 100 µM (inactive). In the case of `Cn1c(-c2ccco2)nc2cc3ccccc3cc21`, the IC50 was 39.7 µM.

For the molecule `Cc1cccc(CSc2cccc3cccnc23)c1`, the IC50 is 33.1 µM. The value for `COc1ccc2[nH]c3c(Cl)ncnc3c2c1` was 18.5 µM; that for `O=C(Oc1c(Cl)cc(Cl)c2cccnc12)c1cccc([N+](=O)[O-])c1` was 2.95 µM; that for `CCCCS(=O)(=O)/C=C\C=C/S(=O)(=O)CCCC` was > 100 µM (inactive). In the case of `Clc1ccc(COC(Cn2ccnc2)c2ccc(Cl)cc2Cl)c(Cl)c1` (centres undefined), the IC50 is below 0.098 µM. The same measure for `O=c1cccc2n1Cc1cc3ccccc3nc1-2`: 29.8 µM. The same measure for `CN(c1ccc(O)cc1)c1nc(-c2ccccc2)cs1`: > 100 µM (inactive); for `CNc1nnc(-c2cc3cc(Cl)ccc3oc2=O)s1`: > 100 µM (inactive); for `Cn1c(SCC(=O)Nc2ccccc2)nc(O)cc1=O`: 50.1 µM. As to `CC(C)(C)n1nc(-c2ccc(F)cc2)c2c(N)ncnc21`, the IC50 was below 0.098 µM. The value for `Cc1ccc(/C=C/C(=O)c2ccccc(=O)c2O)c(C)c1` was 4.42 µM; that for `Oc1cccc(C=NCc2ccccc2)c1O` was 9.17 µM; that for `Clc1ccc(CCNc2nc3ccccc3s2)cc1` was > 100 µM (inactive). For `CCOC(=O)c1ccc(-n2[nH]c(-c3ccccc3)cc2=O)cc1`, the half-maximal inhibitory concentration (IC50) was 17.1 µM. In the case of `CC1=NNC(=O)/C1=C\c1cn(-c2ccccc2)nc1-c1cccs1`, the IC50 is 36.1 µM. The value for `O=C(N/N=C\c1cccc([N+](=O)[O-])c1O)C1COc2ccccc2O1` (centres undefined) was 24.8 µM; that for `Cc1ccc2c(c1)c1c(n2C)-c2[nH]ncc2CC1` was 35.3 µM. The value for `O=C1Cc2ccccc2C(=O)N1CCc1ccccc1` was > 100 µM (inactive); that for `COc1cc2c(cc1OC)CN(C(=O)CSc1nnc3scc(-c4ccccc4)n13)CC2` was > 100 µM (inactive). Consider `COCCN1CSC(=S)N(Cc2ccco2)C1`, for which the concentration for half-maximal inhibition (IC50) is 20.1 µM. The value for `Cc1cc(=O)[nH]c(SCc2nc3ccccc3s2)n1` was > 100 µM (inactive). The value for `Cc1cc(N2CCN(C(=O)c3ccco3)CC2)n2ncc(-c3ccccc3)c2n1` was > 100 µM (inactive); that for `Oc1c(CN2CCc3ccccc3C2)cc(Cl)c2cccnc12` was 16 µM; that for `Cc1ccc(COc2ccc(Br)cc2/C=N/O)cc1` was > 100 µM (inactive). The same measure for `Cc1nc2cc3ccccc3cc2c(=O)[nH]1`: > 100 µM (inactive); for `Nc1ccc(SC(F)(F)F)cc1C(=O)c1ccccc1`: > 100 µM (inactive). As for `O=C(O)CSc1cccc[n+]1[O-]`, the half-inhibitory concentration (IC50) is 33.9 µM.

As to `CCc1ccc(S(=O)(=O)NCCc2cn3ccsc3n2)s1`, the IC50 was > 100 µM (inactive). Consider `CCOC(=O)C1C(C)N=C2SCC(=O)N2C1c1cccc(Br)c1` (centres undefined), for which the IC50 was > 100 µM (inactive). The same measure for `Cc1ccc(-c2cc(C(=O)N3N=C(C(F)F)CC3(O)C(F)F)c3ccccc3n2)cc1C` (centres undefined): > 100 µM (inactive). The same measure for `Cc1nn(-c2ccc(F)cc2)c2sc(C(=O)O)cc12`: 30.9 µM. As for `CCOC(=O)c1c(N)sc(C(O)(C(F)(F)F)C(F)(F)F)c1-c1ccc(F)cc1`, the IC50 is > 100 µM (inactive). The value for `CCCc1cc(C(=O)Cc2ccc(F)cc2)c(O)cc1O` was 48.3 µM. The same measure for `COC(=O)CSC1=NS(=O)(=O)c2ccccc21`: > 100 µM (inactive). As to `CCc1cc(-c2n[nH]c(C)c2Oc2ccc(C(C)C)cc2)c(O)cc1O`, the IC50 is 31.4 µM.

As to `O=C(O)Cc1cc(I)c(Oc2ccc(O)c(I)c2)c(I)c1`, the half-inhibitory concentration (IC50) was 23.9 µM. The value for `O=C(ONC1=NCCCCC1)c1ccc(Cl)cc1` was 6.15 µM. The value for `N/C(Cc1ccc(Cl)cc1)=N\OC(=O)c1ccccc1` was 27.1 µM; that for `CCc1cccc(C)c1NC(=S)NCc1ccc2[nH]c(C)cc2c1` was 37.5 µM. On to `Cc1ccc(-n2c(C)cc(C(=O)COC(=O)c3ccc[nH]c3=O)c2C)cc1`, for which the concentration for half-maximal inhibition (IC50) was 18.1 µM. Turning to `O=S(=O)(Nc1ccc(-c2nc3ccccc3o2)cc1)c1ccccc1`, the IC50 is > 100 µM (inactive). The same measure for `O=C(CSC1=NS(=O)(=O)c2ccccc21)Nc1ccccc1`: > 100 µM (inactive); for `O=[N+]([O-])c1ccc(Cl)c(S(=O)(=O)N2CCCCCC2)c1`: 37.4 µM. In the case of `Cc1cc(O)c(/C=N/Nc2ccccc2Cl)c(=O)o1`, the IC50 is 29.7 µM. The value for `O=C(c1ccc(C(=O)N2CCCc3ccccc32)s1)N1CCCc2ccccc21` was 35.6 µM; that for `O=C(O)c1ccccc1C(=O)NNc1ccc(Cl)cc1` was 4.61 µM; that for `O=C1c2ccccc2NC(c2ccc(-c3cccc(Cl)c3)o2)N1O` (centres undefined) was 35 µM.

For `Cc1ccc(-n2c(C)cc(C(=O)COC(=O)c3ccc[nH]c3=O)c2C)cc1C`, the IC50 was 3.98 µM. The value for `CCOC(=O)c1c(NC(=S)Nc2ccc(Cl)cc2)sc2c1CCN(C)C2` was 7.82 µM. Turning to `COc1ccc(-c2nncnn2)cc1`, the half-inhibitory concentration (IC50) is 10 µM. For `Cc1ccc(NN2C(=O)C=C(c3ccc(Cl)cc3)C2=O)cc1`, the IC50 is 18.4 µM. The same measure for `c1ccc(-c2nc(-n3ccnc3)nc(-n3ccnc3)n2)cc1`: 34.3 µM. As for `O=C1C=C(c2ccccc2)C(=O)N1Nc1ccccc1`, the concentration for half-maximal inhibition (IC50) is 12 µM. The same measure for `COc1cccc(CC(=O)Nc2ccc3nc(C)sc3c2)c1`: 35 µM; for `Cc1cc(C)nc(/N=c2/ssnc2Cl)c1`: > 100 µM (inactive); for `O=C1NCCCC1C(=O)N/N=C/c1cccc(O)c1` (centres undefined): > 100 µM (inactive). The value for `O/N=C/c1ccc(OCc2ccccc2)c(Br)c1` was > 100 µM (inactive). The same measure for `Cc1ccc(/C(N)=N/OC(=O)c2ccc(Cl)cc2Cl)cc1`: 18.3 µM; for `O=C1c2cccc3cccc(c23)C(=O)N1c1cccnc1`: 29.5 µM; for `C/C(O)=c1/ccc2cccc3nc(C)nc1c23`: 17.6 µM. In the case of `COc1ccc2c(c1)S/C(=C\C(=O)c1ccncc1)N2C`, the IC50 was 5.32 µM. As to `Brc1ccccc1-c1nnc(CSc2nnc3sc4ccccc4n23)o1`, the IC50 is > 100 µM (inactive).

For `COc1ccc(-c2nnc3sc(C(C)N4C(=O)c5ccccc5C4=O)nn23)cc1` (centres undefined), the IC50 is > 100 µM (inactive). The value for `N#CC(c1cccc(Cl)c1)c1ccc2c(C(F)(F)F)cc(C(F)(F)F)nc2n1` (centres undefined) was > 100 µM (inactive); that for `O=C(Oc1csc(=S)n1C(=O)c1ccccc1)c1ccccc1` was > 100 µM (inactive).

`O=C(CSC1=NCCS1)N1CCN(c2ccc(Cl)cc2)CC1`: the IC50 is > 100 µM (inactive). The same measure for `O=C1CSC(=S)N1c1cccnc1`: 31.9 µM; for `O=Cc1c(Sc2ccccc2)nc2ccccn2c1=O`: 29 µM. As for `Nc1ccc(O)c2c1C(=O)c1ccccc1C2=O`, the half-inhibitory concentration (IC50) was 28.1 µM. The value for `Clc1ccccc1N/N=C/c1ccc2c(c1)OCO2` was 32.5 µM. The value for `O=C(O)c1ccc(N(c2ccccc2)c2ccccc2)cc1` was > 100 µM (inactive); that for `O=C(Nc1cccc(N=Cc2cc(Br)cc(Br)c2O)c1)c1ccco1` was 19.3 µM. On to `O=C(CCc1ccccc1)NNC(=S)NC(=O)c1ccccc1`, for which the IC50 is > 100 µM (inactive). The same measure for `Oc1c(Br)cc(Cl)cc1C=Nc1ccccc1Br`: 27.1 µM; for `O=C1OCC(CO)(CO)N=C1NNc1cc(Cl)ccc1Cl`: 16.2 µM; for `Fc1ccc(Br)cc1C1C=C(c2cccnc2)Nc2ncnn21` (centres undefined): > 100 µM (inactive).

Turning to `O=C(Cc1cccs1)NNC(=S)NC(=O)c1ccccc1`, the IC50 was > 100 µM (inactive). With `CCOC(=O)/C(=N\Nc1ccccc1Cl)N1CCN(Cc2ccccc2)CC1`, the IC50 was 17.9 µM. The value for `Cc1ccnn2cc3c(=O)n(C)c(=O)n(C)c3c12` was 23.2 µM. The value for `CCS(=O)(=O)n1nc(-c2ccc(Cl)cc2)nc1SCc1ccccc1` was > 100 µM (inactive); that for `O=c1c(-c2ccccc2)nc(-c2ccccc2)cn1O` was 15.1 µM; that for `c1ccc2nc3ccccc3nc2c1` was 16.8 µM.
